How the values were obtained:
UKE-1 = assay: Synergy assay with ruxolitinib (Chou-Talalay), UKE-1; assay type: cell-based, human; settings: combination of cortistatin A with JAK1/2 inhibitor ruxolitinib, FIG. 5
Method: SET-2 and UKE-1 cells were co-treated with constant ratios of ruxolitinib to CA, 1 to 1 or 10 to 1, in a 96-well growth assay format with a range of 2-fold dose dilutions of compounds. SET-2 and UKE-1 cells were also treated with ruxolitinib alone or CA alone in a 2-fold dilution series. The Chou-Talalay combination index values at 50% growth inhibition (Fa=0.5) were determined using CalcuSyn software (see Chou, T. C. Cancer Res. 2010 Jan. 15; 70(2):440-6) (FIG. 5).

[1] = test system: disseminated MV4;11-mCLP leukemia; assay: MV4;11 xenograft model in NSG mice; assay type: in vivo, mouse
Method: The MV4;11 xenograft model was performed as previously described (Etchin, J. et al. Antileukemic activity of nuclear export inhibitors that spare normal hematopoietic cells. Leukemia 27, 66-74 (2013)). Two-million MV4; 11-mCLP cells were injected into the tail vein of 7-week-old female non-obese diabetic-severe combined immuno-deficient (NOD-SCID)Il2rg^−/− (NSG) mice (The Jackson Laboratory) and tumour burden was assessed by bioluminescence imaging (BLI) using an IVIS Spectrum system (Caliper Life Sciences). […] After 30 days, blood counts were obtained (Hemavet 950 F, Drew Scientific) and spleen, femur and peripheral blood cells were collected and analysed by flow cytometry (LSR Fortessa, BD Biosciences) from three mice per group, having the highest, lowest and median BLI value. […] Survival was measured as the time from therapy initiation until moribund state. […]
The MV4;11 xenograft model was performed as previously described (Etchin, J. et al. Antileukemic activity of nuclear export inhibitors that spare normal hematopoietic cells. Leukemia 27, 66-74 (2013)). Two-million MV4;11-mCLP cells were injected into the tail vein of 7-week-old female non-obese diabetic-severe combined immuno-deficient (NOD-SCID)Il2rg-^−/− (NSG) mice (The Jackson Laboratory) and tumour burden was assessed by bioluminescence imaging (BLI) using an IVIS Spectrum system (Caliper Life Sciences). […]

CDK8/Cyclin C = target: T1, CDK8/Cyclin C (Homo sapiens, UniProt P49336); assay: In vitro radiometric protein kinase assay (PanQinase); assay type: biochemical; settings: FIG. 8
T1 construct: purchased ProQinase GmbH
T1 sequence (P49336 whole entry): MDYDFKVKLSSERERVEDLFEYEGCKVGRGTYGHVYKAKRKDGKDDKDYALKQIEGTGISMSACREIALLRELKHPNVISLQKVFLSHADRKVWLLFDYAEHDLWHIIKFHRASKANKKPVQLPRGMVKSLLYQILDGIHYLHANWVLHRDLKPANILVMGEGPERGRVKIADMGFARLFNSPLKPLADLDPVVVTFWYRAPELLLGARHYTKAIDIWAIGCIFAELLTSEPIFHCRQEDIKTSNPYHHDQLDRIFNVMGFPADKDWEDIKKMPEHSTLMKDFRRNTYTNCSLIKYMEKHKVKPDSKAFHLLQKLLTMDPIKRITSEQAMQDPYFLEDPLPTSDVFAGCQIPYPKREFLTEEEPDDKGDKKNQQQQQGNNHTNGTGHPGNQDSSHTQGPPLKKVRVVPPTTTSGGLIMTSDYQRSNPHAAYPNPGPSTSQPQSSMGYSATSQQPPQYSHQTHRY
T1 sequence (P24863 whole entry partner): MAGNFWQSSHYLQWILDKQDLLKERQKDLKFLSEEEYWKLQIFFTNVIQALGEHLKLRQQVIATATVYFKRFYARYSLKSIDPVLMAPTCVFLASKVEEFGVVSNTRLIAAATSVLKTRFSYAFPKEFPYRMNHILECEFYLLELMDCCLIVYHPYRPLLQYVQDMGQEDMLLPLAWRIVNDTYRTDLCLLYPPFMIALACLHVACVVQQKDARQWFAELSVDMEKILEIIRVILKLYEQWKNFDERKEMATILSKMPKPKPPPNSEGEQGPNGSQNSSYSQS
Excerpt: A radiometric protein kinase assay was used (PanQinase activity assay; performed by ProQinase GmbH) as described (Hutterer, C. et al. Antimicrob. Agents Chemother. 59, 2062-2071 (2015)).

RUNX1 = RUNX1 recruitment to genomic loci; assay type: cell-based, human; settings: FIG. 11
CDK8/19 = settings: 1,000 nM cortistatin A; FIG. 7B
Method: Native kinome profiling was performed with MOLM-14 cell lysate according to the KiNativ Method by ActivX Biosciences. For each peptide quantified, the change in mass spectrometry signal for the treated samples relative to the signal for the control samples was expressed as percentage inhibition.

RL95-2 = assay: Soft agar growth assay (Alamar Blue); settings: ER-alpha positive, 100 nM cortistatin A
Method: (§1) For the 62 cell lines 96 well suspension cell culture plates were prepared. 100 μL of the soft agar bottom layer (0.6% final concentration in complete medium) was poured and left to solidify. 50 μL of the soft agar top layer (0.4% final concentration) containing the corresponding cells and cell number were then added on top, solidified and incubated at 37° C., 10% CO2. After the soft agar had solidified, the test items were added at indicated final concentrations into the inner wells of the plate. Subsequently, the assay was incubated in cell culture incubators for 8 to 14 days. Finally, the assay was developed using Alamar Blue and upon 1-5 h of incubation at 37° C. fluorescence intensity was determined (excitation: 560 nm; emission: 590 nm). As low control, cells were treated with 1E-05M Staurosporine (6fold values). As high control, cells were treated with 0.1% DMSO (solvent control, 6 fold values).
(§2) Raw data were converted into percent soft agar growth relative to high controls (solvent 0.1% DMSO) and low controls (1E-05M Staurosporine), which were set to 100% and 0%, respectively.

MCF-7 = assay: Soft agar growth assay (Alamar Blue); settings: Breast cancer, ER-alpha positive, 100 nM cortistatin A
Method: as §1, §2

A498 = assay: Soft agar growth assay (Alamar Blue); settings: clear cell renal cell carcinoma, Loss of function VHL mutation (VHL negative), 100 nM cortistatin A
Method: as §1, §2

NCI-N87 = assay: Soft agar growth assay (Alamar Blue); settings: Gastric cancer, HER2 overexpression, 100 nM cortistatin A
Method: as §1, §2

JeKo-1 = assay: Cellular proliferation assay (CellTiter-Glo); settings: Homo sapiens
Method: (§3) All suspension cells were plated (96-well) in triplicate at 5,000-30,000 cells per well for testing (n=3). Viable cell number was estimated after 3, 7 and 10 days by counting viable cells from one vehicle well, generating a cell dilution series, transferring 20 ml per well in duplicate to a 384-well plate, and performing a linear regression to CellTiter-Glo (Promega) response (SPECTRAmax M3, Molecular Devices). Cells from all wells were also fourfold diluted in media and transferred in duplicate for CellTiter-Glo measurement. On days 3 and 7, an equal volume for all wells was split-back with fresh media and compound, such that the resulting cell density for the vehicle well matched the initial seeding density. For days 7 and 10, estimated cell number represents the split-adjusted theoretical cell number. HCT116 were plated (96-well) in triplicate at 250 cells per well. Cells were incubated in the presence of vehicle, 1 μM paclitaxel, or compound. On day 7, CellTiter-Blue (Promega) response was measured and values were normalized to vehicle (100% growth) and paclitaxel (0% growth). For growth assays with inhibitors, n=3 for each concentration with two independent experiments.

RS4;11 = assay: Cellular proliferation assay (CellTiter-Glo); settings: Homo sapiens
Method: as §3

SET-2 = assay: Cellular proliferation assay (CellTiter-Glo); settings: for GI50: Homo sapiens
Method: (§4) All suspension cells were plated (96-well) in triplicate at 5,000-30,000 cells per well for testing (n=3). Viable cell number was estimated after 3, 7 and 10 days by counting viable cells from one vehicle well, generating a cell dilution series, transferring 20 ml per well in duplicate to a 384-well plate, and performing a linear regression to CellTiter-Glo (Promega) response (SPECTRAmax M3, Molecular Devices). Cells from all wells were also fourfold diluted in media and transferred in duplicate for CellTiter-Glo measurement. On days 3 and 7, an equal volume for all wells was split-back with fresh media and compound, such that the resulting cell density for the vehicle well matched the initial seeding density. For days 7 and 10, estimated cell number represents the split-adjusted theoretical cell number. […] For growth assays with inhibitors, n=3 for each concentration with two independent experiments.

MM1.S = assay: Cellular proliferation assay (CellTiter-Glo); settings: Homo sapiens
Method: as §3

MOLM-14 = assay: Cellular proliferation assay (CellTiter-Glo); settings: Homo sapiens
Method: as §4

OCI-LY1 = assay: Cellular proliferation assay (CellTiter-Glo); settings: Homo sapiens
Method: as §4

HCT116 = assay: Cellular proliferation assay (CellTiter-Blue, day 7); settings: Homo sapiens, HCT-116
Method: as §3

Q: How did the “combination index (synergy) for inhibition of proliferation” value (UKE-1) turn out when CN(C)[C@H]1C[C@@]23CC[C@@]4(O2)C(=CC[C@]2(C)[C@@H](c5ccc6ccncc6c5)CC[C@H]24)C=C3[C@@H](O)[C@@H]1O [Cortistatin A, cortistatin A] was run?
A: The value was “synergizes”.

Q: What about the “leukemia cells in the lungs (haematoxylin and eosin staining)” value ([1]; MV4;11 AML mice, Day 30, FIG. 10) of the same compound?
A: Its value is “fewer leukemia cells in the lungs”.

Q: What about the spleen weight ([1]; female NSG mice, once daily IP for 15 days, measured 37 days after injection of cells, FIG. 6) of the same compound?
A: The spleen weight was “prevents spleen weight increase”.

Q: And the “inhibition of CDK8/Cyclin C kinase activity” value (CDK8/Cyclin C)?
A: Its value is “potently inhibits CDK8/Cyclin C”.

Q: What about the “RUNX1 recruitment to loci” value (RUNX1) of the same compound?
A: Its value is “RUNX1 was recruited to loci upregulated by CA treatment”.

Q: What about the “kinase selectivity (native kinase % inhibition)” value (CDK8/19) of the same compound?
A: The value was “selectively inhibits CDK8/19”.

Q: What about the “% growth rel. to vehicle” value (RL95-2) of the same compound?
A: Its value is 16%.

Q: And the “% growth rel. to vehicle” value (MCF-7)?
A: Its value is 49%.

Q: And the “% growth rel. to vehicle” value (A498)?
A: Its value is 51%.

Q: And the “% growth rel. to vehicle” value (NCI-N87)?
A: Its value is 26%.

Q: And the GI50 (JeKo-1)?
A: The GI50 was under 1 nM.

Q: And the GI50 (RS4;11)?
A: The GI50 was 3 nM.

Q: What about the GI50 (SET-2; SET-2) of the same compound?
A: Its GI50 is 4 nM.

Q: What about the GI50 (SET-2; SET-2, 240 h) of the same compound?
A: Its GI50 is 4 nM.

Q: What about the “proliferation of SET-2 cells (theoretical cell number versus days of treatment)” value (SET-2; dose-dependent, FIG. 4) of the same compound?
A: The value was “inhibits the proliferation of SET-2 cells”.

Q: What about the GI50 (MM1.S) of the same compound?
A: The GI50 was 5 nM.

Q: What about the GI50 (MOLM-14; MOLM-14) of the same compound?
A: The GI50 was 5 nM.

Q: What about the GI50 (MOLM-14; MOLM-14, 240 h) of the same compound?
A: Its GI50 is 5 nM.

Q: What about the GI50 (OCI-LY1) of the same compound?
A: The GI50 was 37 nM.

Q: What about the GI50 (HCT116) of the same compound?
A: The GI50 was over 1000 nM.

From US20180135134A1, “TARGETED SELECTION OF PATIENTS FOR TREATMENT WITH CORTISTATIN DERIVATIVES” (President and Fellows of Harvard College, priority 2015, published 2018)
